Measured values taken from PMC12285270, “An antibiotic-free antimicrobial combination of bacteriocins and a peptidoglycan hydrolase: in vitro and in vivo assessment of its efficacy” (Applied and Environmental Microbiology, 2025).
Ends that are not written are not given here.

Legend:
[1] = tested on: normal human epidermal keratinocytes; conditions: cited from earlier work
Excerpt: (§1) Encouraged by the efficacy of the MP1/Nis/Aur combination in inhibiting S. aureus in the wound, we sought to examine the potential of the antimicrobial combination in treating mastitis, an infection often caused by S. aureus.

[2] = tested on: S. aureus Xen31 isolates Mut1 and Mut2; assay: Spot-on-lawn assay on isolates recovered from wounds; assay type: cell-based; conditions: for zone of inhibition compared to wild-type strain Xen31: both isolates Mut1 and Mut2, 2 µl of 1 mg/ml nisin A, 0.1 mg/ml MP1 and/or 0.1 mg/ml AuresinePlus spotted
Procedure: Figure S9. Susceptibility of Xen31 mutants recovered from wounded mice. Spot-on-lawn assay using MP1 (M), Nis (N), Aur (A) or the tricomponent combination (MNA) comparing Xen31 WT with two resistant isolates recovered at day 7 PI from the back of wounded mice. Two µl of 1 mg/ml nisin A, 0.1 mg/ml MP1 and/or 0.1 mg/ml AuresinePlus were spotted.

[3] = tested on: HepG2 and THP-1 cell lines; conditions: cited from earlier work
Excerpt: as §1

S. aureus Xen31 = conditions: formulation: 0.1 mg/mL MP1, 5 mg/mL garvicin KS, 5 mg/mL penicillin G in 5% hydropropylcellulose; cited from earlier work
Excerpt: (§2) The antimicrobial combinations of MP1, Nis, and AuresinePlus were additionally shown to be effective at eradicating S. aureus biofilms (Fig. 3B and C). This led us to assess the antimicrobial efficacy of the combination in vivo using a murine skin infection model. For infected mice treated with the combination, a reduction in the bioluminescence signal was observed throughout the experiment, except for two mice where a relapse of the infection occurred (see Discussion below, Fig. 4C).

[4] = tested on: HT29 and Caco-2 cell lines; conditions: in vitro; cited from earlier work
Excerpt: as §1

S. aureus Xen36 = conditions: cited from earlier work
Excerpt: as §2

S. aureus = conditions: in vitro; cited from earlier work
Excerpt: As individual components, these antimicrobials probably have limited efficacy against S. aureus in wounds. AuresinePlus is an engineered PGH consisting of the catalytic domain of the S. aureus autolysin LytM and the SH3b cell wall-binding domain lysostaph ...

Substance	IC50 (midpoint cytotoxicity value) [1] [µg/mL]	sensitivity of isolate Mut2 ([2]; Mut2, 2 µl of 0.1 mg/ml MP1 spotted)	zone of inhibition compared to wild-type strain Xen31 [2]	concentration above which growth is impaired [3]	negative effects on the mice (S. aureus Xen31)	IC50 (cytotoxicity) [4] [µg/mL]	effect on wound healing (S. aureus Xen36)	reduction in bacterial counts (S. aureus Xen36; skin wounds, nisin concentration comparable to this study) [log]	frequency of spontaneous mutations conferring high levels of nisin tolerance (S. aureus)
Lysostaphin: large (>10 kDa) heat-labile bacteriolysin from S. simulans	16000	–	–	–	–	–	–	–	–
micrococcin P1 [MP1]	–	insensitive	particularly reduced	above 0.03 mg/mL	no obvious negative effects on the mice	–	–	–	–
nisin A (ITSISLCTPGCKTGALMGCNMKTATCHCSIHVSK; also: lantibiotic (lanthionine rings, dehydro residues) not placed; UniProt P13068 24-57, looked up) [lantibiotic bacteriocin; commercial fermentate from Sigma-Aldrich (N5764; 2.5% wt/wt nisin)]	–	–	particularly reduced	–	–	300 to 400	no negative effects on wound healing	2	2 × 10^−7
